Laboratory results published in PubChem BioAssay AID1963856 (Molecular Pharmacology Branch, DTP, NCI, 2024).

Tested on: LG0567-F671-PDC KRAS tumor spheroid viability
Experiment: Anticancer human tumor LG0567-F671-PDC patient-derived lung adenocarcinoma cell line growth inhibition [KRAS2]
Conditions: spheroids with HUVEC and MSC; for IC50: curve of first compound; for viability, T/C: stronger effect = lower value
Method in brief: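 Combination screen of spheroid viability in tumor-cell co-cultures with endothelial (HUVEC) and mesenchymal stem cell stroma. Each agent was tested in half-log dilutions, topping at clinical Cmax or at 10 microM without a known Cmax.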

[1] = second compound 0.1 µM, first compound 0.0316 µM
[2] = second compound 0.1 µM, first compound 0.1 µM
[3] = second compound 0.1 µM, first compound 0.316 µM
[4] = second compound 0.1 µM, first compound 1 µM
[5] = second compound 0.1 µM, first compound 3.16 µM
[6] = second compound 0.1 µM, first compound 10 µM
[7] = second compound 0.316 µM, first compound 0.0316 µM
[8] = second compound 0.316 µM, first compound 0.1 µM
[9] = second compound 0.316 µM, first compound 0.316 µM
[10] = second compound 0.316 µM, first compound 1 µM
[11] = second compound 0.316 µM, first compound 3.16 µM
[12] = second compound 0.316 µM, first compound 10 µM
[13] = second compound 1 µM, first compound 0.0316 µM
[14] = second compound 1 µM, first compound 0.1 µM
[15] = second compound 1 µM, first compound 0.316 µM
[16] = second compound 1 µM, first compound 1 µM
[17] = second compound 1 µM, first compound 3.16 µM
[18] = second compound 1 µM, first compound 10 µM
[19] = second compound 3.16 µM, first compound 0.0316 µM
[20] = second compound 3.16 µM, first compound 0.1 µM
[21] = second compound 3.16 µM, first compound 0.316 µM
[22] = second compound 3.16 µM, first compound 1 µM
[23] = second compound 3.16 µM, first compound 3.16 µM
[24] = second compound 3.16 µM, first compound 10 µM
[25] = second compound 10 µM, first compound 0.0316 µM
[26] = second compound 10 µM, first compound 0.1 µM
[27] = second compound 10 µM, first compound 0.316 µM
[28] = second compound 10 µM, first compound 1 µM
[29] = second compound 10 µM, first compound 3.16 µM
[30] = second compound 10 µM, first compound 10 µM
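Further: drug exposure lasted seven days after spheroids formed for three days.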
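Wherever viability, T/C is given: 100% = DMSO vehicle control viability.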

Compound | IC50 (second compound 0.1 µM) | IC50 (second compound 0.316 µM) | IC50 (second compound 1 µM) | IC50 (second compound 3.16 µM) | IC50 (second compound 10 µM) | viability, T/C [1] | viability, T/C [2] | viability, T/C [3] | viability, T/C [4] | viability, T/C [5] | viability, T/C [6] | viability, T/C [7] | viability, T/C [8] | viability, T/C [9] | viability, T/C [10] | viability, T/C [11] | viability, T/C [12] | viability, T/C [13] | viability, T/C [14] | viability, T/C [15] | other results
COC(=O)c1ccc2c(C(=Nc3ccc(N(C)C(=O)CN4CCN(C)CC4)cc3)c3ccccc3)c(O)[nH]c2c1 + COc1cc2nc(C)nc(NC(C)c3cc(N)cc(C(F)(F)F)c3)c2cc1OC1CCOC1 | > 10 µM | > 10 µM | > 10 µM | 4.08 µM | 1.59 µM | 112% | 76.2% | 65.9% | 85.8% | 83.8% | 69.5% | 60.2% | 51.6% | 58.8% | 71.2% | 61.7% | 64.1% | 72.3% | 66.3% | 61.5% | viability, T/C [16]: 71.1%; viability, T/C [17]: 66.4%; viability, T/C [18]: 61.4%; viability, T/C [19]: 73.8%; viability, T/C [20]: 75.2%; viability, T/C [21]: 66.7%; viability, T/C [22]: 71.8%; viability, T/C [23]: 64.2%; viability, T/C [24]: 0.24%; viability, T/C [25]: 78.7%; viability, T/C [26]: 81.1%; viability, T/C [27]: 82.3%; viability, T/C [28]: 79%; viability, T/C [29]: 6.56%; viability, T/C [30]: 1.03%
COc1cc(Nc2ncc3c(n2)-c2ccc(Cl)cc2C(c2c(F)cccc2OC)=NC3)ccc1C(=O)O + COc1cc2nc(C)nc(NC(C)c3cc(N)cc(C(F)(F)F)c3)c2cc1OC1CCOC1 | 2.45 µM | < 0.0316 µM | 0.169 µM | < 0.0316 µM | < 0.0316 µM | 64.3% | 59.9% | 60.9% | 55.1% | 48.9% | 36% | 46.6% | 50.2% | 43.3% | 47.1% | 36% | 28.2% | 48.3% | 53.7% | 49.5% | viability, T/C [16]: 44.5%; viability, T/C [17]: 37.9%; viability, T/C [18]: 28.8%; viability, T/C [19]: 40%; viability, T/C [20]: 44.4%; viability, T/C [21]: 46.1%; viability, T/C [22]: 36.9%; viability, T/C [23]: 32.7%; viability, T/C [24]: 23.6%; viability, T/C [25]: 40.2%; viability, T/C [26]: 37.8%; viability, T/C [27]: 37.7%; viability, T/C [28]: 33.1%; viability, T/C [29]: 27.6%; viability, T/C [30]: 18.9%
O=C(c1cc(Cc2n[nH]c(=O)c3ccccc23)ccc1F)N1CCN(C(=O)C2CC2)CC1 + COc1cc2nc(C)nc(NC(C)c3cc(N)cc(C(F)(F)F)c3)c2cc1OC1CCOC1 | > 10 µM | > 10 µM | > 10 µM | > 10 µM | > 10 µM | 84.3% | 108% | 81.8% | 109% | 96.8% | 70.3% | 68.5% | 58.5% | 67.8% | 64% | 57.4% | 70.5% | 102% | 117% | 98% | viability, T/C [16]: 94.1%; viability, T/C [17]: 95%; viability, T/C [18]: 81.5%; viability, T/C [19]: 69.3%; viability, T/C [20]: 68.7%; viability, T/C [21]: 72.8%; viability, T/C [22]: 63%; viability, T/C [23]: 68.8%; viability, T/C [24]: 61.5%; viability, T/C [25]: 78.7%; viability, T/C [26]: 63.2%; viability, T/C [27]: 68%; viability, T/C [28]: 63.2%; viability, T/C [29]: 53.1%; viability, T/C [30]: 56.1%
